{
  "source": "patent US9193731B2",
  "about": "“Antimicrobial compounds and methods of making and using the same” (Melinta Therapeutics, Inc., priority 2009, dated 2015)",
  "data": [
    {"test_system": "Escherichia coli strain ATCC25922", "experiment": "standard microdilution assay to determine minimum inhibitory concentrations (MICs)", "type": "cell-based", "conditions": "Escherichia coli, ATCC25922, Escherichia coli strain ATCC25922, microdilution; read-out: E. coli ATCC25922 MIC", "experimental": "Minimum inhibitory concentrations (MICs) are determined by the microdilution method, typically in a final volume of 100 microliters, according to protocols outlined by The Clinical and Laboratory Standards Institute [CLSI; formerly the National Committee for Clinical Laboratory Standards (NCCLS)]. See CLSI: Methods for dilution antimicrobial susceptibility tests for bacteria that grow aerobically; approved standard-fifth edition. Wayne, Pa.: NCCLS; 2000. The assays can be also be performed in microtiter trays according to conventional methodologies as published by the CLSI. See CLSI. Methods for Dilution Antimicrobial Susceptibility Tests for Bacteria That Grow Aerobically; Approved Standard—Seventh Edition. CLSI Document M7-A7 [ISBN 1-56238-587-9] CLSI, 940 West Valley Road, Suite 1400, Wayne Pa. 19087-1898 USA, 2006).\nThe compounds of the present invention were tested for antimicrobial activity. The compounds were run against Escherichia coli strain ATCC25922 using a standard microdilution assay to determine minimum inhibitory concentrations (MICs). […] A “N/A” means that data is unavailable. It will be recognized by one skilled in the art that the compounds can be assessed against other bacterial organisms and that the presentation of data for activity against Escherichia coli is illustrative and in no way is intended to limit the scope of the present invention. The compounds of the present invention can be assayed against a range of other microorganisms depending upon the performance activity desired to be gathered. Furthermore, the “+”, “−”, and “N/A” representation and the selection of a cutoff value of 16 micrograms/ml is also illustrative and in no way is intended to limit the scope of the present invention.", "units": {"MIC": "µg/mL"}, "values": [
      {"smiles": "NCCCNCc1ccc(-c2cn3cc(-c4ccc(Br)cc4)[nH]c3nc2=O)cc1", "note": "[Compound 617, 6-{4-[(3-Amino-propylamino)-methyl]-phenyl}-2-(4-bromo-phenyl)-1H-imidazo[1,2-a]pyrimidin-7-one]", "MIC": "> 16"},
      {"smiles": "N=C(N)NCCCNCc1ccc(-c2cn3cc(-c4ccc(Br)cc4)[nH]c3nc2=O)cc1", "note": "[Compound 618]", "MIC": "> 16"},
      {"smiles": "NCCCNCc1ccc(-n2cc3cc(-c4ccccn4)[nH]c3nc2=O)cc1", "note": "[Compound 620]", "MIC": "> 16"},
      {"smiles": "NCCCNCc1ccc(-n2cc3cc(Cc4ccccc4)[nH]c3nc2=O)cc1", "note": "[Compound 621]", "MIC": "> 16"},
      {"smiles": "NCCCNCc1ccc(-n2cc3cc(CC4CCCCC4)[nH]c3nc2=O)cc1", "note": "[Compound 622]", "MIC": "> 16"},
      {"smiles": "NCCCNCc1ccc(-n2cc3cc(C4=CCCCC4)[nH]c3nc2=O)cc1", "note": "[Compound 623]", "MIC": "> 16"},
      {"smiles": "NCCCNCc1ccc(-n2cc3cc(CCN)[nH]c3nc2=O)cc1", "note": "[Compound 624]", "MIC": "< 16"},
      {"smiles": "CC(C)(N)c1cc2cn(-c3ccc(CNCCCN)cc3)c(=O)nc2[nH]1", "note": "[Compound 625]", "MIC": "> 16"},
      {"smiles": "NCCCNCc1ccc(-n2cc3cc(COc4ccccc4)[nH]c3nc2=O)cc1", "note": "[Compound 626]", "MIC": "> 16"},
      {"smiles": "N=C(N)NCCCNCc1ccc(-n2cc3cc(CN4CCS(=O)(=O)CC4)[nH]c3nc2=O)cc1", "note": "[Compound 628]", "MIC": "> 16"},
      {"smiles": "N=C(N)NCCCNCc1ccc(-n2cc3cc(-c4ccsc4)[nH]c3nc2=O)cc1", "note": "[Compound 629]", "MIC": "< 16"},
      {"smiles": "N=C(N)NCCCNCc1ccc(-n2cc3cc(COc4ccccc4)[nH]c3nc2=O)cc1", "note": "[Compound 630]", "MIC": "> 16"},
      {"smiles": "CS(=O)(=O)c1ccc(-c2cn3cc(-c4ccc(CNCCCN)cc4)c(=O)nc3[nH]2)cc1", "note": "[Compound 631]", "MIC": "> 16"},
      {"smiles": "CS(=O)(=O)c1ccc(-c2cn3cc(-c4ccc(CNCCCNC(=N)N)cc4)c(=O)nc3[nH]2)cc1", "note": "[Compound 632]", "MIC": "> 16"},
      {"smiles": "NCCCNCc1ccc(-n2cc3cc(-c4ccncc4)[nH]c3nc2=O)cc1", "note": "[Compound 633]", "MIC": "> 16"},
      {"smiles": "CC(C)(C)c1ccc(-c2cc3cn(-c4ccc(CNCCCN)cc4)c(=O)nc3[nH]2)cc1", "note": "[Compound 634]", "MIC": "< 16"},
      {"smiles": "CS(=O)(=O)c1ccc(-c2cn3cc(-c4ccc(CN(CCCN)CCCNC(=N)N)cc4)c(=O)nc3[nH]2)cc1", "note": "[Compound 635]", "MIC": "< 16"},
      {"smiles": "N=C(N)NCCCNCc1ccc(-n2cc3cc(CSc4n[nH]c(N)n4)[nH]c3nc2=O)cc1", "note": "[Compound 636]", "MIC": "> 16"},
      {"smiles": "N=C(N)NCCCNCc1ccc(-n2cc3cc(-c4cccc(NCC(=O)N5CCOCC5)c4)[nH]c3nc2=O)cc1", "note": "[Compound 637]", "MIC": "> 16"},
      {"smiles": "N=C(N)NCCCN(CCCN)Cc1ccc(-c2cn3cc(-c4ccc(Br)cc4)[nH]c3nc2=O)cc1", "note": "[Compound 640]", "MIC": "< 16"},
      {"smiles": "NCCCNCc1ccc(-n2cc3cc(-c4cccc(NCC(=O)N5CCNCC5)c4)[nH]c3nc2=O)cc1", "note": "[Compound 644]", "MIC": "< 16"},
      {"smiles": "N=C(N)NCCCNCc1ccc(-n2cc3cc(-c4cccc(NCC(=O)N5CCNCC5)c4)[nH]c3nc2=O)cc1", "note": "[Compound 645]", "MIC": "< 16"},
      {"smiles": "NCCCNCc1ccc(-c2cn3nc(C4CC4)[nH]c3nc2=O)cc1", "note": "[Compound 646]", "MIC": "> 16"},
      {"smiles": "NCCCNCc1ccc(-c2cn3nc(N)[nH]c3nc2=O)cc1", "note": "[Compound 647]", "MIC": "> 16"},
      {"smiles": "NCCCNCc1ccc(-c2cn3cc(-c4ccc(C(=O)NC5CCNCC5)cc4)[nH]c3nc2=O)cc1", "note": "[Compound 648]", "MIC": "< 16"},
      {"smiles": "NCCCNCc1ccc(-c2cn3cc(-c4ccc(C5=CCNCC5)cc4)[nH]c3nc2=O)cc1", "note": "[Compound 649]", "MIC": "< 16"},
      {"smiles": "N=C(N)NCCCNCc1ccc(-c2cn3cc(-c4ccc(C5=CCN(C(=N)N)CC5)cc4)[nH]c3nc2=O)cc1", "note": "[Compound 650]", "MIC": "< 16"},
      {"smiles": "N=C(N)NCCCNCc1ccc(-c2cn3cc(-c4ccc(C(=O)N5CCC(O)C5)cc4)[nH]c3nc2=O)cc1", "note": "(stereo not drawn) [Compound 653]", "MIC": "> 16"},
      {"smiles": "N=C(N)NCCCNCc1ccc(-c2cn3cc(-c4ccc(C(=O)N5CCOCC5)cc4)[nH]c3nc2=O)cc1", "note": "[Compound 654]", "MIC": "> 16"},
      {"smiles": "N=C(N)NCCCNCc1ccc(-n2cc3cc(-c4cccc(N5CCNCC5)c4)[nH]c3nc2=O)cc1", "note": "[Compound 655]", "MIC": "< 16"}
    ]}
  ]
}
